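Interpolation was linear, between the two tested concentrations surrounding the appropriate level; five concentrations were tested over 48 hours in 96-well plates. GI50 is the concentration that inhibits growth by half. At the TGI there is no net growth.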
Legend:
Experiment in all cases: DTP human tumour cell line panel, 48 h
OVCAR-4 ovarian = system: OVCAR-4 ovarian
786-0 renal = system: 786-0 renal
NCI-H522 lung = system: NCI-H522 lung
OVCAR-5 ovarian = system: OVCAR-5 ovarian
UO-31 renal = system: UO-31 renal
SW-620 colon = system: SW-620 colon
CAKI-1 renal = system: CAKI-1 renal
HCT-15 colon = system: HCT-15 colon
RXF 393 renal = system: RXF 393 renal
MDA-MB-468 breast = system: MDA-MB-468 breast
SF-539 CNS = system: SF-539 CNS
UACC-62 melanoma = system: UACC-62 melanoma
SK-MEL-5 melanoma = system: SK-MEL-5 melanoma
RPMI-8226 leukemia = system: RPMI-8226 leukemia
PC-3 prostate = system: PC-3 prostate
MOLT-4 leukemia = system: MOLT-4 leukemia
NCI-H226 lung = system: NCI-H226 lung
NCI-H23 lung = system: NCI-H23 lung
A549 NSCLC = system: A549 NSCLC
SK-OV-3 ovarian = system: SK-OV-3 ovarian
MDA-MB-231 breast = system: MDA-MB-231 breast
HT29 colon = system: HT29 colon
OVCAR-3 ovarian = system: OVCAR-3 ovarian
LOX IMVI melanoma = system: LOX IMVI melanoma
HL-60(TB) leukemia = system: HL-60(TB) leukemia
NCI-H460 lung = system: NCI-H460 lung
T-47D breast = system: T-47D breast
MDA-MB-435 = system: MDA-MB-435
HCT-116 colon = system: HCT-116 colon
HOP-92 NSCLC = system: HOP-92 NSCLC
K-562 leukemia = system: K-562 leukemia
SF-295 CNS = system: SF-295 CNS
U251 CNS = system: U251 CNS
HCC-2998 colon = system: HCC-2998 colon
A498 renal = system: A498 renal
MCF7 breast = system: MCF7 breast
HS 578T breast = system: HS 578T breast
BT-549 breast = system: BT-549 breast
SK-MEL-28 melanoma = system: SK-MEL-28 melanoma
DU-145 prostate = system: DU-145 prostate
SNB-75 CNS = system: SNB-75 CNS
HOP-62 NSCLC = system: HOP-62 NSCLC
CCRF-CEM leukemia = system: CCRF-CEM leukemia
MALME-3M melanoma = system: MALME-3M melanoma
SR leukemia = system: SR leukemia
UACC-257 melanoma = system: UACC-257 melanoma
TK-10 renal = system: TK-10 renal
OVCAR-8 ovarian = system: OVCAR-8 ovarian
IGROV1 ovarian = system: IGROV1 ovarian
SNB-19 CNS = system: SNB-19 CNS
EKVX NSCLC = system: EKVX NSCLC
SK-MEL-2 melanoma = system: SK-MEL-2 melanoma
NCI/ADR-RES ovarian = system: NCI/ADR-RES ovarian
M14 melanoma = system: M14 melanoma
ACHN renal = system: ACHN renal
COLO 205 colon = system: COLO 205 colon
KM12 colon = system: KM12 colon
SF-268 CNS = system: SF-268 CNS
SN12C renal = system: SN12C renal

## C/C(=N\N=C\c1cc([N+](=O)[O-])ccc1Cl)c1ccc2c(c1)Nc1ccccc1S2
OVCAR-4 ovarian
  GI50: 3.12 µM
  TGI: 11.8 µM
786-0 renal
  GI50: 12.4 µM
  TGI: 27.6 µM
NCI-H522 lung
  GI50: 12.2 µM
  TGI: 41 µM
OVCAR-5 ovarian
  GI50: 28.4 µM
  TGI: > 100 µM
UO-31 renal
  GI50: 11.2 µM
  TGI: 25.4 µM
SW-620 colon
  GI50: 9.55 µM
  TGI: 24.5 µM
CAKI-1 renal
  GI50: 12.5 µM
  TGI: 27.7 µM
HCT-15 colon
  GI50: 19.2 µM
  TGI: > 100 µM
RXF 393 renal
  GI50: 16.6 µM
  TGI: 94.5 µM
MDA-MB-468 breast
  GI50: 1.83 µM
  TGI: 18.6 µM
SF-539 CNS
  GI50: 16.9 µM
  TGI: 35.2 µM
UACC-62 melanoma
  GI50: 29 µM
  TGI: > 100 µM
SK-MEL-5 melanoma
  GI50: 24.9 µM
  TGI: > 100 µM
RPMI-8226 leukemia
  GI50: 20.6 µM
  TGI: > 100 µM
PC-3 prostate
  GI50: 38.4 µM
  TGI: > 100 µM
MOLT-4 leukemia
  GI50: 20.4 µM
  TGI: > 100 µM
NCI-H226 lung
  GI50: 17.7 µM
  TGI: > 100 µM
NCI-H23 lung
  GI50: 16.3 µM
  TGI: 45 µM
A549 NSCLC
  GI50: 7.56 µM
  TGI: 31.8 µM
SK-OV-3 ovarian
  GI50: 14.9 µM
  TGI: 45.1 µM
MDA-MB-231 breast
  GI50: 21.1 µM
  TGI: 63 µM
HT29 colon
  GI50: 26 µM
  TGI: > 100 µM
OVCAR-3 ovarian
  GI50: 11.3 µM
  TGI: 24 µM
LOX IMVI melanoma
  GI50: 31.3 µM
  TGI: > 100 µM
HL-60(TB) leukemia
  GI50: 24.2 µM
  TGI: > 100 µM
NCI-H460 lung
  GI50: 6.28 µM
  TGI: 21.4 µM
T-47D breast
  GI50: 4.3 µM
  TGI: 25.8 µM
MDA-MB-435
  GI50: 22.9 µM
  TGI: > 100 µM
HCT-116 colon
  GI50: 3.36 µM
  TGI: 15.3 µM
HOP-92 NSCLC
  GI50: 16.1 µM
  TGI: 89.5 µM
K-562 leukemia
  GI50: 16.8 µM
  TGI: > 100 µM
SF-295 CNS
  GI50: 13.5 µM
  TGI: 35.1 µM
U251 CNS
  GI50: 8.36 µM
  TGI: 23.9 µM
HCC-2998 colon
  GI50: 52.2 µM
  TGI: > 100 µM
A498 renal
  GI50: 12.6 µM
  TGI: 27.6 µM
MCF7 breast
  GI50: 21.5 µM
  TGI: > 100 µM
HS 578T breast
  GI50: 15 µM
  TGI: 58.3 µM
BT-549 breast
  GI50: 20.7 µM
  TGI: > 100 µM
SK-MEL-28 melanoma
  GI50: > 100 µM
  TGI: > 100 µM
DU-145 prostate
  GI50: 34.4 µM
  TGI: > 100 µM
SNB-75 CNS
  GI50: 12.6 µM
  TGI: 33.4 µM
HOP-62 NSCLC
  GI50: 16.6 µM
  TGI: 39.8 µM
CCRF-CEM leukemia
  GI50: 11.4 µM
  TGI: > 100 µM
MALME-3M melanoma
  GI50: 19.1 µM
  TGI: > 100 µM
SR leukemia
  GI50: 13.5 µM
  TGI: 81 µM
UACC-257 melanoma
  GI50: 23.6 µM
  TGI: > 100 µM
TK-10 renal
  GI50: 11.4 µM
  TGI: 24.9 µM
OVCAR-8 ovarian
  GI50: 12.2 µM
  TGI: 35.8 µM
IGROV1 ovarian
  GI50: 23.6 µM
  TGI: > 100 µM
SNB-19 CNS
  GI50: 23.8 µM
  TGI: > 100 µM
EKVX NSCLC
  GI50: 19.3 µM
  TGI: 79.8 µM
SK-MEL-2 melanoma
  GI50: 20.8 µM
  TGI: 83.1 µM
NCI/ADR-RES ovarian
  GI50: 17.9 µM
  TGI: 65.5 µM
M14 melanoma
  GI50: 51.7 µM
  TGI: > 100 µM
ACHN renal
  GI50: 2.87 µM
  TGI: 8.59 µM
COLO 205 colon
  GI50: 18.3 µM
  TGI: > 100 µM
KM12 colon
  GI50: 35.8 µM
  TGI: > 100 µM
SF-268 CNS
  GI50: 26.3 µM
  TGI: > 100 µM
SN12C renal
  GI50: 6.86 µM
  TGI: 28.5 µM

From PubChem BioAssay (NCI)
